Assays:
CDK2/CycE = target: T1, CDK2/CycE (Homo sapiens, UniProt P24941); test: CDK2/CycE kinase assay (TR-FRET); assay type: biochemical; conditions: ATP 10 μM, values given in μM
T1 construct: GST; purchased ProQinase GmbH (Freiburg, Germany); host or cells: insect cells (Sf-9)
Source text: CDK2/CycE-inhibitory activity of compounds of the present invention was quantified employing the CDK2/CycE TR-FRET assay as described in the following paragraphs.
Recombinant fusion proteins of glutathione S-transferase (GST) and human CDK2 and of GST and human CycE, expressed in insect cells (Sf-9) and purified by glutathion-sepharose affinity chromatography, were purchased from ProQinase GmbH (Freiburg, Germany). A biotinylated peptide biotin-Ttds-[…] (C-terminus in amide form), which can be purchased from e.g the company JERINI Peptide Technologies (Berlin, Germany), was used as a substrate for the kinase reaction.
For the assay, 50 nl of a 100-fold concentrated solution of the test compound in DMSO was pipetted into a well of a black low-volume 384-well microtiter plate (Greiner Bio-One, Frickenhausen, Germany), 2 μl of a solution of CDK2/CycE in aqueous assay buffer [50 mM Tris/HCl pH 8.0], 10 mM MgCl2, 1.0 mM dithiothreitol, 0.1 mM sodium ortho-vanadate, 0.01% (v/v) Nonidet-P40 (Sigma)] were added. The mixture was incubated at 22° C. for 15 min to allow pre-binding of the test compounds to the enzyme before the start of the kinase reaction. […] The resulting mixture was incubated at 22° C. for 25 minutes. The concentration of CDK2/CycE was adjusted depending on the activity of the enzyme lot and was chosen appropriately for measurements in the linear range of the assay. Typical concentrations were in the range of 130 ng/ml. The reaction was stopped by the addition of 5 μl of a solution of TR-FRET detection reagents (0.2 μM streptavidine-XL and 1 nM anti-RB(pSer807/pSer811)-antibody from BD Pharmingen [#558389] and 1.2 nM LANCE EU-W1024 labeled anti-mouse IgG antibody [Perkin-Elmer, product no. AD0077]) in an aqueous EDTA-solution (100 mM EDTA, 0.2% (w/v) bovine serum albumin in 100 mM HEPES/NaOH, pH 7.0).
The resulting mixture was incubated at 22° C. for one hour to allow the formation of a complex between the phosphorylated biotinylated peptide and the detection reagents. Subsequently, the amount of phosphorylated substrate was evaluated by measuring the resonance energy transfer from the Eu-chelate to the streptavidine-XL. Therefore, the fluorescence emissions at 620 nm and 665 nm after excitation at 350 nm were measured in a high time-resolved fluorometry (HTRF) reader, e.g. a Rubystar (BMG Labtechnologies, Offenburg, Germany) or a Viewlux (Perkin-Elmer). The ratio of the emissions at 665 nm and at […] was taken as a measure for the amounts of phosphorylated substrate. The data were normalised, i.e. enzyme reaction without inhibitor corresponds to 0% inhibition, and all other assay components in the absence of the enzyme correspond to 100% inhibition. IC50 values were calculated by a 4-parameter fit using in-house software.

HeLa cells = test: Cell viability, HeLa cells; assay type: cell-based; conditions: Homo sapiens
Experimental: (§1) HeLa- or MDAMB468-Cells or MATU ADR, H460, DU145, CACO-2 or B16F10 cells were maintained in RPMI 1640 or McCoy's 5A cell culture medium+glutamine (PAN Biotech GmbH, Aidenbach, Germany; order no. P04-22100; P04-05500) supplemented with 10% fetal calf serum “Gold” (PAA Laboratories GmbH, Pasching, Austria; order no. A15-151) and grown at 37° C., 5% CO2. For the cell viability assay, cells were seeded with a density of 400 (Hela cells, DSMZ Braunschweig order no. ACC57) or 800 (MDAMB468 cells, ATCC order no. HTB-132) per well in 25 μL in 384-well plates (Greiner Bio-One, Frickenhausen, Germany; order no. 781080). After overnight incubation at 37° C./5% CO2, 25 nL or 75 nL compound were added to each sample well by using BIOMEK FXP Laboratory Automation Workstation (Beckman Coulter, USA). Wells with cells and 0.1% or 0.3% DMSO in culture medium were used as positive controls, wells with cells and 10 μM staurosporine in culture medium were used as negative controls. The cells were incubated with the compounds for 72 h at 37° C./5% CO2. For measurement of cell viability […] Cell Titer Glo reagent (Promega, Madison, USA; order no. G7573), 1:2 diluted with cell culture medium, was added to each well. The 384well-plates were placed for 2 min on an orbital microplate shaker and incubated for further 10 min at room temperature to stabilize the luminescence signal. Luminescence was measured by Envision Plate Reader (Perkin Elmer, USA). EC50 values were calculated with the software Excel Fit (IDBS, Guildford, UK) from 3-fold dilution series comprising at least 8 concentrations in duplicates.
Cultivated tumour cells (NCl-H460, human non-small cell lung carcinoma cells, ATCC HTB-177; DU 145, hormone-independent human prostate carcinoma cells, ATCC HTB-81; HeLa-MaTu, human cervical carcinoma cells, EPO-GmbH, Berlin; HeLa-MaTu-ADR, multidrug-resistant human cervical carcinoma cells, EPO-GmbH, Berlin; HeLa human cervical tumour cells, ATCC CCL-2; Caco-2 human colorectal carcinoma, ATCC HTB-37; B16F10 mouse melanoma cells, ATCC CRL-6475) were plated at a density of 5,000 cells/well (DU145, HeLa-MaTu-ADR), 3,000 cells/well (NCl-H460, HeLa-MaTu, HeLa), 1,500 cells/well (Caco-2), or 1,000 cells/well (B16F10) in a 96-well multititer plate in 200 μL of their respective growth medium supplemented with 10% fetal calf serum. After 24 hours, the cells of one plate (zero-point plate) were stained with crystal violet (see below), while the medium of the other plates was replaced by fresh culture medium (200 μl), to which the test substances were added in various concentrations (0 μM as well as in the range of 0.001 to 10 μM; the final concentration of the solvent dimethyl sulfoxide was 0.5%). The cells were incubated in the presence of test substances for 4 days. Cell proliferation was determined by staining the cells with crystal violet: The cells were fixed by adding 20 μl/measuring point of an 11% glutaric aldehyde solution at room temperature for 15 minutes. After three washing cycles of the fixed cells with water, the plates were dried at room temperature. The cells were stained by adding 100 μl/measuring point of a 0.1% crystal violet solution (pH 3.0). After three washing cycles of the stained cells with water, the plates were dried at room temperature. The dye was dissolved by adding 100 μl/measuring point of a 10% acetic acid solution. The extinction was determined by photometry at a wavelength of 595 nm. The change of cell number, in percent, was calculated by normalization of the measured values to the extinction values of the zero-point plate (equivalent to 0%) and the extinction of the untreated (0 μm) cells (equivalent to 100%). The IC50 values were determined by means of a 4 parameter fit using the company's own software.

MDAMB468 cells = test: Cell viability assay, MDAMB468 cells; assay type: cell-based; conditions: Homo sapiens, MDA-MB-468, 72 h, Cell Titer Glo
Experimental: as §1

CDK7/CyclinH/Mat1 = target: T2, CDK7/CyclinH/Mat1 (Homo sapiens, UniProt P50613); test: LanthaScreen Eu Kinase Binding Assay, CDK7; conditions: tracer 236, read-out: Affinity (Kd) CDK7
T2 construct: purchased Carna Biosciences
T2 sequence (P50613 whole entry): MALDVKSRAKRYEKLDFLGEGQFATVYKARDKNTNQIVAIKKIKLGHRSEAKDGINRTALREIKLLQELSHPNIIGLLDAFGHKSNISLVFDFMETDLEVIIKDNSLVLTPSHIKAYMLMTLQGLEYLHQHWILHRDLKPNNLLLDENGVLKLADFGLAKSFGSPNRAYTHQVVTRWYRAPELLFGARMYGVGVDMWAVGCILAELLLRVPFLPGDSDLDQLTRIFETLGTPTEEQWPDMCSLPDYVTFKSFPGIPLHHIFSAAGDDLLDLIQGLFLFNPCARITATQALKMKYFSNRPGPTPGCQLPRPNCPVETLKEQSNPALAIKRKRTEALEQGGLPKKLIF
T2 sequence (P51946 whole entry partner): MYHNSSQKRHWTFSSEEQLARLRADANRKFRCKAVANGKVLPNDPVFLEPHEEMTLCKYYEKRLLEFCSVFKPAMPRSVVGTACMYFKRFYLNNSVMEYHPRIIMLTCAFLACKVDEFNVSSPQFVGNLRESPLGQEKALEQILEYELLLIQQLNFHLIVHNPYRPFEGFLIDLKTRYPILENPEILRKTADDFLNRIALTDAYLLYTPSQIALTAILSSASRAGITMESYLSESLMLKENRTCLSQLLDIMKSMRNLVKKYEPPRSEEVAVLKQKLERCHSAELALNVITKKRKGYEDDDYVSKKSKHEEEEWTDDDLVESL
T2 sequence (P51948 whole entry partner): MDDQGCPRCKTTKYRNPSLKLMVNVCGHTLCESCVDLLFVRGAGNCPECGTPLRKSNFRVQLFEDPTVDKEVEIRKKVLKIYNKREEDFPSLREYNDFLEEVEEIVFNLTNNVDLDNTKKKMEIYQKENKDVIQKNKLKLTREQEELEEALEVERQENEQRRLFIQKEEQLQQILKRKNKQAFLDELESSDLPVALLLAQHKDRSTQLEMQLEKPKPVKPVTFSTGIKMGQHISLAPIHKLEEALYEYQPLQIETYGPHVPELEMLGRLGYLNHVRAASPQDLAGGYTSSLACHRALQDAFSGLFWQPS
Procedure, shortened: (§2)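 TR-FRET competition binding with Alexa Fluor 647 tracer and Eu-anti-GST antibody; e.g. CDK2/Cyclin A 15 nM with tracer 236 60 nM (working solutions). Kinase buffer: HEPES 20 mM pH 8.0, MgCl2 10 mM, DTT 1 mM, Brij-35 0.01%; 8-point 1:3 series, 1 h at room temperature; Kd from sigmoidal dose-response curves.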

CDK9/Cyclin T1 = target: T3, CDK9/Cyclin T1 (Homo sapiens, UniProt P50750); test: LanthaScreen Eu Kinase Binding Assay, CDK9/Cyclin T1; conditions: tracer 236, read-out: Affinity (Kd) CDK9/Cyclin T1
T3 construct: purchased Invitrogen
T3 sequence (P50750 whole entry): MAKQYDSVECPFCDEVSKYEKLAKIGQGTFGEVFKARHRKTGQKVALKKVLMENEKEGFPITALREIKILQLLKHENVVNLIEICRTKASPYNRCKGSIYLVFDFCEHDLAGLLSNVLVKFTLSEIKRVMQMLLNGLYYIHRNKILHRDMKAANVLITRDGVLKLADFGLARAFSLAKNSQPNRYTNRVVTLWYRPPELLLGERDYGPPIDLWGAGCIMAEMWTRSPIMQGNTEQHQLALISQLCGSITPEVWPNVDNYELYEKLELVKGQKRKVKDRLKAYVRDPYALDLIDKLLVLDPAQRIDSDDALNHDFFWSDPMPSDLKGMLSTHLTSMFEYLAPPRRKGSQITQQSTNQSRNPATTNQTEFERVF
T3 sequence (O60563 whole entry partner): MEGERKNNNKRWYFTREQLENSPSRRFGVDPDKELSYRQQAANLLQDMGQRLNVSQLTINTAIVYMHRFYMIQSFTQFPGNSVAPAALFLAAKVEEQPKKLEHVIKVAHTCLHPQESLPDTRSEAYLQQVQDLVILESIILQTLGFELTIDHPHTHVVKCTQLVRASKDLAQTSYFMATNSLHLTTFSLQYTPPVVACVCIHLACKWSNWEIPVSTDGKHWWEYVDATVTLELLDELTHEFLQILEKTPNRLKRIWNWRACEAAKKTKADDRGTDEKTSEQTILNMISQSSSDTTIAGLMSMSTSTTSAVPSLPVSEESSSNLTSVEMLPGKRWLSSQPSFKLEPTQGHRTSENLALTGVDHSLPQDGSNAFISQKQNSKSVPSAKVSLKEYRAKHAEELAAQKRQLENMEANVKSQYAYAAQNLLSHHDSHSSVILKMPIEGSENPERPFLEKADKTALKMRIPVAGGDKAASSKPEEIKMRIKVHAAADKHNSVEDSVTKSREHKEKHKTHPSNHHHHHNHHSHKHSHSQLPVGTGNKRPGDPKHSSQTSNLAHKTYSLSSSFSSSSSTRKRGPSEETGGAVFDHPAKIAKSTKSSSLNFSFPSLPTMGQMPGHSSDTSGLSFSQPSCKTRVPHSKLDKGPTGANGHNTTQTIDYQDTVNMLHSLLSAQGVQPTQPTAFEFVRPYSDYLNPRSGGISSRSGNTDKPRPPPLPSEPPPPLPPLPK
Procedure, shortened: as §2

CDK9 = target: T4, CDK9 (Homo sapiens, UniProt P50750); test: Lance Ultra KinaSelect Assay, CDK9; assay type: biochemical; conditions: read-out: Inhibition (IC50) CDK9
T4 construct: purchased Invitrogen
T4 sequence (P50750 whole entry): as the sequence (P50750 whole entry) above
Experimental: This protocol describes how the Lance Ultra KinaSelect Assay was performed to determine half maximal inhibitory concentration (IC50) of compounds of general formula (I) and CDK/Cyclin complexes. The principle behind this enzymatic assay is based upon the phosphorylation of the ULight-Peptide Substrat. It is detected by using a specific EU-labeled anti-phospho peptide antibody. The binding of the Eu-labeled anti-phospho peptide antibody to the phosphorylated U Light labeled peptide gives rise to a FRET-signal. Binding of an inhibitor to the kinase prevents phosphorylation of the ULight-MBP Substrat, resulting in a loss of FRET.
The compounds of general formula (I) summarized in Table 5 were diluted from a 10 mM DMSO stock solution 1:10 in a total volume of 15 μL DMSO. This compound predilution was then serial diluted 1:3 over 8 steps in DMSO and briefly spun down. Each compound solution was now diluted 1:20 in Enzymatic Buffer (HEPES: 50 mM, pH: 7.5; MgCl2: 10 mM; EGTA: 1 mM; DTT: 2 mM; Tween-20: 0.01%), mixed thoroughly and spun down. For every sample, 2 μL of the diluted compound were mixed with 6 μL CDK/Cyclin/Substrat solution and […] in a well of a small volume 384 well plate (Corning Incorporated, Corning, N.Y., USA; order no. 3673). […] For positive controls, in each well 2 μL of DMSO solution (1% final DMSO assay concentration) was mixed with 6 μL CDK/Cyclin/Substrat (appropriate final concentration see Table 3) and 2 μL Tracer ATP solution (appropriate final concentration see Table 3). Positive and negative controls were calculated from at least 8 different sample wells. The 384 well plates were mixed in a Teleshaker plate mixer (Beckman Coulter, Brea, Calif., USA) at 2000 rpm for 40 sec, and incubated for 1 h at room temperature. Before reading, 10 μL detection buffer (Lance Detection Buffer 1×; EDTA: […]; Eu-Anti-P-MBP: see Table 3) was added. The FRET signal was measured at 340 nm excitation, 665 nm and 615 nm emission (for the kinase tracer and LanthaScreen Eu-AB, respectively) with an Envision spectrophotometer (Perkin Elmer, Waltham, Mass., USA) with 50 μs delay and 300 μs integration time. IC50 values were determined from the sigmoidal dose response curves with the software Quattro Workflow (Quattro GmbH, Munich, Germany).

CDK2/CyclinA = target: T5, CDK2/CyclinA (Homo sapiens, UniProt P24941); test: LanthaScreen Eu Kinase Binding Assay, CDK2; conditions: tracer 236, read-out: Affinity (Kd) CDK2
T5 construct: purchased Proqinase
Procedure, shortened: as §2

CDK9/Cyclin K = target: T6, CDK9/Cyclin K (Homo sapiens, UniProt P50750); test: LanthaScreen Eu Kinase Binding Assay, CDK9/Cyclin K; conditions: tracer 236, read-out: Affinity (Kd) CDK9/Cyclin K
T6 construct: purchased Invitrogen
T6 sequence (P50750 whole entry): as above
T6 sequence (O75909 whole entry partner): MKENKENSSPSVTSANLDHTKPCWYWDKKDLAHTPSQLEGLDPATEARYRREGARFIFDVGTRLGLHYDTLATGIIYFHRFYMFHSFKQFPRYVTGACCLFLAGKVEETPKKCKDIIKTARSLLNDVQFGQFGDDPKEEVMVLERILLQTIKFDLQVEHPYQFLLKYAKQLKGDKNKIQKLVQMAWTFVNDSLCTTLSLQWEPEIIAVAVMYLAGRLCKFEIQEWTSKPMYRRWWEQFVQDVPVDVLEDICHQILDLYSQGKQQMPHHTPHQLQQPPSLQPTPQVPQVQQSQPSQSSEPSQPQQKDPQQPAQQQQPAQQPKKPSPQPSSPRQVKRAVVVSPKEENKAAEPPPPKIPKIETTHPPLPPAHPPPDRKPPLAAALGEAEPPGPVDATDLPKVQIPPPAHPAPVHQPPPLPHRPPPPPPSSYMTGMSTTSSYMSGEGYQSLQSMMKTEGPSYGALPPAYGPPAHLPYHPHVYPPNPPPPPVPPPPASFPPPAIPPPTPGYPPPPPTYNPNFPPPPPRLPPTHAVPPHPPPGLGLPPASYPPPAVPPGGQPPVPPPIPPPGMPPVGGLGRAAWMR
Procedure, shortened: as §2

COc1ccccc1-c1cc(Nc2cccc(CS(N)(=O)=O)c2)ncn1 [Ref1, C-{3-[6-(2-Methoxy-phenyl)-pyrimidin-4-ylamino]-phenyl}-methanesulfonamide, reference compound] showed an IC50 (CDK2/CycE) of 2.1 µM and an IC50 (HeLa cells) of 3400 nM.
With COc1ccccc1-c1ncnc(Nc2cccc(C(N)=O)c2)n1 [Compound E1, 3-[(4-(2-Methoxyphenyl)-1,3,5-triazin-2-yl)amino]benzamide] the IC50 (MDAMB468 cells) was 23000 nM, the Kd (CDK7/CyclinH/Mat1) was > 10000 nM and the Kd (CDK9/Cyclin T1) was 136 nM. The IC50 (CDK9) was 837 nM, the Kd (CDK2/CyclinA) was 2160 nM and the Kd (CDK9/Cyclin K) was 301 nM.
